Counter-ions that a name gives are not always drawn. Like-named read-outs stand apart in the source and are kept apart here.
Target: androgen receptor (hAR) (Homo sapiens (Human), UniProt P10275)
Assay: Test of transcriptional activity (hAR / ARE-Luc dual-luciferase assay in CHO cells)
Format: cell-based
Details: CHO cells with hAR and ARE-Luc, 24 hours, 10 nM DHT = 100%
Protocol: In order to examine the transcriptional activity of the agonists of the present invention, the following in-vitro experiment was performed. CHO (Chinese hamster ovary) cell line (ATCC, #CCL-61) was seeded in a 96-well plate at a density of 1.5×10^4 cells/well, and cultured for 24 hours. Then, a plasmid hAR and plasmid ARE-Luc-mixed medium was added thereto. The transfected cell line was treated with 0.1˜10,000 nM of SARM derivatives, and then allowed to react for 24 hours.

[1] = read-out: EC50 [nM] (mean ± SE)

Sequence of androgen receptor (hAR) (P10275 whole entry): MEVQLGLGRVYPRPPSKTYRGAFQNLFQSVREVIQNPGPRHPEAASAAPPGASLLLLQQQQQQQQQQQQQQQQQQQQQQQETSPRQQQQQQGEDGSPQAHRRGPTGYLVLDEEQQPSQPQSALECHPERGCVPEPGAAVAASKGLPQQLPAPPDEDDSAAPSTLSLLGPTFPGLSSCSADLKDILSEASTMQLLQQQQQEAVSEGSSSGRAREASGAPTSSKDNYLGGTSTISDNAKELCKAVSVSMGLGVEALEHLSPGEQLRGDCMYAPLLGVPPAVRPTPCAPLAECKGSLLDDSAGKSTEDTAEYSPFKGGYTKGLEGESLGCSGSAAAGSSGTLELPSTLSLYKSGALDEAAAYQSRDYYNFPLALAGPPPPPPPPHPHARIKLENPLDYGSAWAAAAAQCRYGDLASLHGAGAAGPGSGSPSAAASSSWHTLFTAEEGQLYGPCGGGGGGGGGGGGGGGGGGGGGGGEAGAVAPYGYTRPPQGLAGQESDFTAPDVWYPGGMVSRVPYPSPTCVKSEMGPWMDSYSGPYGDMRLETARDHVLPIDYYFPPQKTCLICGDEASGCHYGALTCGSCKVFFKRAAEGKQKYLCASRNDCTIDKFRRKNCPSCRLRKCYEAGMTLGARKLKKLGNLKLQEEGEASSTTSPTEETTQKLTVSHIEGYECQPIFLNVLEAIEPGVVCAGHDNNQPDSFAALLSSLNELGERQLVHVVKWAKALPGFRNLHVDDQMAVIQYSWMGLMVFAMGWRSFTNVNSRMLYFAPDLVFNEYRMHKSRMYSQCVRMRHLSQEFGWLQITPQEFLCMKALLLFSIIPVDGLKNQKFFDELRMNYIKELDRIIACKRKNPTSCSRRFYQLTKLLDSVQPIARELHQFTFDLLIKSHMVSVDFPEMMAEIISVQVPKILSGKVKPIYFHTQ

Molecule	EC50 [1]	EC50 (EC50 [nM] (mean ± SE))
Cc1cc(N2C[C@@H](COc3ccncc3)O[C@@H]2C(F)(F)F)ccc1[N+](=O)[O-] [Example 69, (2R,5S)-3-(3-methyl-4-nitrophenyl)-5-((pyridin-4-yloxy)methyl)-2-(trifluoromethyl)oxazolidine]	1.54 nM	
N#Cc1ccc(N2C[C@@H](COc3ccncc3)O[C@@H]2C(F)(F)F)cc1C(F)(F)F [Example 59, 4-((2R,5S)-5-((pyridin-4-yloxy)methyl)-2-(trifluoromethyl)oxazolidin-3-yl)-2-(trifluoromethyl)benzonitrile]		3.25 nM
N#Cc1ccc(OC[C@@H]2CN(c3ccc([N+](=O)[O-])c(C(F)(F)F)c3)[C@@H](C(F)(F)F)O2)cc1 [Example 64, 4-(((2R,5S)-3-(4-nitro-3-(trifluoromethyl)phenyl)-2-(trifluoromethyl)oxazolidin-5-yl)methoxy)benzonitrile]	34 nM	
(2R,5S)-3-(4-cyano-3-(trifluoromethyl)phenyl)-N-(3,4-dicyanophenyl)-2-(trifluoromethyl)oxazolidine-5-carboxamide [Example 132]	3.44 nM	
Cc1c(N2C[C@@H](COc3ccc(C#N)nc3)O[C@@H]2C(F)(F)F)ccc(C#N)c1Cl [Example 77, 5-(((2R,5S)-3-(3-chloro-4-cyano-2-methylphenyl)-2-(trifluoromethyl)oxazolidin-5-yl)methoxy)picolinonitrile]		10.6 nM
N#Cc1ccc(N2C[C@@H](COc3ccc(CO)cc3)O[C@@H]2C(F)(F)F)cc1C(F)(F)F [Example 67, 4-((2R,5S)-5-((4-(hydroxymethyl)phenoxy)methyl)-2-(trifluoromethyl)oxazolidin-3-yl)-2-(trifluoromethyl)benzonitrile]		3.93 nM
Cc1cc(N2C[C@@H](COc3ccc(/C=N/O)cc3)O[C@@H]2C(F)(F)F)ccc1[N+](=O)[O-] [Example 70, (E)-4-(((2R,5S)-3-(3-methyl-4-nitrophenyl)-2-(trifluoromethyl)oxazolidin-5-yl)methoxy)benzaldehyde oxime]	0.62 nM	
N#Cc1ccc(N2C[C@@H](C(=O)Nc3ccc(N)cc3Cl)O[C@@H]2C(F)(F)F)cc1C(F)(F)F [Example 152, (2R,5S)-N-(4-amino-2-chlorophenyl)-3-(4-cyano-3-(trifluoromethyl)phenyl)-2-(trifluoromethyl)oxazolidine-5-carboxamide]		521 nM
CC(=O)N1CCN(C(=O)[C@@H]2CN(c3ccc(C#N)c(C(F)(F)F)c3)[C@@H](C(F)(F)F)O2)CC1 [Example 172, 4-((2R,5S)-5-(4-acetylpiperazine-1-carbonyl)-2-(trifluoromethyl)oxazolidin-3-yl)-2-(trifluoromethyl)benzonitrile]		699 nM
N#Cc1ccc(N2C[C@@H](COc3ccc(-c4nnco4)cc3)O[C@@H]2C(F)(F)F)cc1C(F)(F)F [Example 18, 4-((2R,5S)-5-((4-(1,3,4-oxadiazol-2-yl)phenoxy)methyl)-2-(trifluoromethyl)oxazolidin-3-yl)-2-(trifluoromethyl)benzonitrile]		18.6 nM
N#Cc1ccc(N2C[C@@H](COc3ccc(N4CCCC4=O)cc3)O[C@@H]2C(F)(F)F)cc1C(F)(F)F [Example 17, 4-((2R,5S)-5-((4-(2-oxopyrrolidin-1-yl)phenoxy)methyl)-2-(trifluoromethyl)oxazolidin-3-yl)-2-(trifluoromethyl)benzonitrile]		24 nM
Cc1cc(N2C[C@@H](COc3ccc(C#N)nc3)O[C@@H]2C(F)(F)F)ccc1[N+](=O)[O-] [Example 55, 5-(((2R,5S)-3-(3-methyl-4-nitrophenyl)-2-(trifluoromethyl)oxazolidin-5-yl)methoxy)picolinonitrile]	4.49 nM	
(2R,5S)-N-(4-acetamidophenyl)-3-(3-chloro-4-cyanophenyl)-2-(trifluoromethyl)oxazolidine-5-carboxamide [Example 118]	30.4 nM	
N#Cc1ccc(N2C[C@@H](COc3ccc(NC(N)=O)cc3)O[C@@H]2C(F)(F)F)cc1C(F)(F)F [Example 15, 1-(4-(((2R,5S)-3-(4-cyano-3-(trifluoromethyl)phenyl)-2-(trifluoromethyl)oxazolidin-5-yl)methoxy)phenyl)urea]		15.7 nM
CNC(=O)Nc1ccc(OC[C@@H]2CN(c3ccc(C#N)c(C(F)(F)F)c3)[C@@H](C(F)(F)F)O2)cc1 [Example 16, 1-(4-(((2R,5S)-3-(4-cyano-3-(trifluoromethyl)phenyl)-2-(trifluoromethyl)oxazolidin-5-yl)methoxy)phenyl)-3-methylurea]		21.3 nM
N#Cc1ccc(N2C[C@@H](C(=O)Nc3ccc(NC(=O)CO)cc3)O[C@@H]2C(F)(F)F)cc1C(F)(F)F [Example 160, (2R,5S)-3-(4-cyano-3-(trifluoromethyl)phenyl)-N-(4-(2-hydroxyacetamido)phenyl)-2-(trifluoromethyl)oxazolidine-5-carboxamide]		105 nM

Molecule	EC50 [1]	EC50 (EC50 [nM] (mean ± SE))
N#Cc1ccc(OC[C@@H]2CN(c3ccc(C#N)c(C(F)(F)F)c3)[C@@H]([C@H](O)C(F)(F)F)O2)cc1 [Example 49, 4-((2R,5S)-5-((4-cyanophenoxy)methyl)-2-((S)-2,2,2-trifluoro-1-hydroxyethyl)oxazolidin-3-yl)-2-(trifluoromethyl)benzonitrile]		1700 nM
N#Cc1ccc(OC[C@@H]2CN(c3ccc(Cl)c(Cl)c3)[C@@H](C(F)(F)F)O2)cc1 [Example 63, 4-(((2R,5S)-3-(3,4-dichlorophenyl)-2-(trifluoromethyl)oxazolidin-5-yl)methoxy)benzonitrile]	36.3 nM	
N#Cc1ccc(N2C[C@@H](C(=O)Nc3ccc([N+](=O)[O-])cc3Cl)O[C@@H]2C(F)(F)F)cc1C(F)(F)F [Example 151, (2R,5S)-N-(2-chloro-4-nitrophenyl)-3-(4-cyano-3-(trifluoromethyl)phenyl)-2-(trifluoromethyl)oxazolidine-5-carboxamide]		43.7 nM
N#Cc1ccc(OC[C@@H]2CN(c3ccc(C#N)c(Cl)c3)[C@@H](C(F)(F)F)O2)cn1 [Example 73, 5-(((2R,5S)-3-(3-chloro-4-cyanophenyl)-2-(trifluoromethyl)oxazolidin-5-yl)methoxy)picolinonitrile]		0.991 nM
N#Cc1ccc(N2C[C@@H](COc3ccc(N4CCOC4=O)cc3)O[C@@H]2C(F)(F)F)cc1C(F)(F)F [Example 38, 4-((2R,5S)-5-((4-(2-oxooxazolidin-3-yl)phenoxy)methyl)-2-(trifluoromethyl)oxazolidin-3-yl)-2-(trifluoromethyl)benzonitrile]		165 nM
N#Cc1ccc(NC(=O)[C@@H]2CN(c3ccc(C#N)c(C(F)(F)F)c3)[C@@H](C(F)(F)F)O2)cc1 [Example 138, (2R,5S)-3-(4-cyano-3-(trifluoromethyl)phenyl)-N-(4-cyanophenyl)-2-(trifluoromethyl)oxazolidine-5-carboxamide]		17.3 nM
N#Cc1ccc(N2C[C@@H](COc3ccc(NC(=O)Oc4ccccc4)cc3)O[C@@H]2C(F)(F)F)cc1C(F)(F)F [Example 43, phenyl (4-(((2R,5S)-3-(4-cyano-3-(trifluoromethyl)phenyl)-2-(trifluoromethyl)oxazolidin-5-yl)methoxy)phenyl)carbamate]		21.3 nM
CO/N=C/c1ccc(OC[C@@H]2CN(c3ccc(C#N)c(C(F)(F)F)c3)[C@@H](C(F)(F)F)O2)cc1 [Example 85, 4-((2R,5S)-5-((4-((E)-(methoxyimino)methyl)phenoxy)methyl)-2-(trifluoromethyl)oxazolidin-3-yl)-2-(trifluoromethyl)benzonitrile]		9.84 nM
N#Cc1ccc(N2C[C@@H](COc3ccncc3)O[C@H]2C(F)(F)F)cc1C(F)(F)F [Example 80, 4-((2S,5S)-5-((pyridin-4-yloxy)methyl)-2-(trifluoromethyl)oxazolidin-3-yl)-2-(trifluoromethyl)benzonitrile]		34 nM
N#Cc1ccc(N2C[C@@H](C(=O)Nc3cccnc3)O[C@@H]2C(F)(F)F)cc1C(F)(F)F [Example 110, (2R,5S)-3-(4-cyano-3-(trifluoromethyl)phenyl)-N-(pyridin-3-yl)-2-(trifluoromethyl)oxazolidine-5-carboxamide]		80 nM
N#CCC(=O)Nc1ccc(NC(=O)[C@@H]2CN(c3ccc(C#N)c(C(F)(F)F)c3)[C@@H](C(F)(F)F)O2)cc1 [Example 162, (2R,5S)-3-(4-cyano-3-(trifluoromethyl)phenyl)-N-(4-(2-cyanoacetamido)phenyl)-2-(trifluoromethyl)oxazolidine-5-carboxamide]		149 nM
(2R,5S)-N-(4-acetamidophenyl)-3-(3-methyl-4-nitrophenyl)-2-(trifluoromethyl)oxazolidine-5-carboxamide [Example 112]	10.1 nM	
CC(=O)NC1CCN(C(=O)[C@@H]2CN(c3ccc(C#N)c(C(F)(F)F)c3)[C@@H](C(F)(F)F)O2)CC1 [Example 176]		198 nM
(2R,5S)-N-(3-chloro-4-cyanophenyl)-3-(4-cyano-3-(trifluoromethyl)phenyl)-2-(trifluoromethyl)oxazolidine-5-carboxamide [Example 134]	4.96 nM	
N#Cc1ccc(N2C[C@@H](C(=O)Nc3ccc(NC(=O)CN)cc3)O[C@@H]2C(F)(F)F)cc1C(F)(F)F [Example 163, (2R,5S)-N-(4-(2-aminoacetamido)phenyl)-3-(4-cyano-3-(trifluoromethyl)phenyl)-2-(trifluoromethyl)oxazolidine-5-carboxamide hydrochloride]		214 nM
(2R,5S)-3-(3-chloro-4-nitrophenyl)-N-(4-cyanophenyl)-2-(trifluoromethyl)oxazolidine-5-carboxamide [Example 122]	67.4 nM	

Reference: patent US9809583B2 (priority 2014, dated 2017)
